Measured values as given in patent US12509437B2, “Substituted thiophene carboxamides and derivatives thereof as microbicides” (Bayer Aktiengesellschaft, priority 2019, dated 2025).

Assay: LogP by HPLC on reversed phase columns (EEC directive 79/831 Annex V.A8)
Assay type: physicochemical
Procedure: [table] If more than one Log P value is available within the same method, all the values are given and separated by “+”. Calibration was done with straight-chain alkan2-ones (with 3 to 16 carbon atoms) with known Log P values (measurement of Log P values using retention times with linear interpolation between successive alkanones). Lambda-max-values were determined using UV-spectra from 200 nm to 400 nm and the peak values of the chromatographic signals.

[1] = method [a]: LC-UV, acidic range, 0.1% formic acid in water and acetonitrile as eluent

Compound	LogP (method [a])	also measured
Cc1c(C(=O)NC2(C(=O)O)CC2)sc(Cl)c1Cl [1-{[(4,5-dichloro-3-methyl-2-thienyl)carbonyl]amino}cyclopropanecarboxylic acid]		chromatographic logP (reversed phase HPLC columns, preparation examples, method not indicated, read-out: Log P): 2.17
Cc1c(C(=O)NC2C(=O)SC2(C)C)sc(Br)c1Br (stereo not shown) [I.001]		LogP [1]: 3.99^[a]
Cc1c(C(=O)NC2CCSC2=O)sc(Br)c1Br (stereo not shown) [I.002]		LogP [1]: 3.04^[a]
CCSC(=O)C(CC(C)C)NC(=O)c1sc(Br)c(Br)c1C (stereo not shown) [I.007]	5.03^[a]	
Cc1c(C(=O)N[C@H]2CCSC2=O)sc(Br)c1Br [I.010]		LogP [1]: 3.04^[a]
CCOC(=O)C1(CNC(=O)c2sc(Br)c(Br)c2C)CC1 [I.013]	3.79^[a]	
CCOC(=O)C1(C2(NC(=O)c3sc(Br)c(Br)c3C)CC2)CC1 [I.017]	4.37^[a]	
Cc1c(C(=O)NC2(C3(C(=O)OC(C)C)CC3)CC2)sc(Br)c1Br [I.020]	4.87^[a]	
Cc1c(C(=O)NC2CCOC2=O)sc(Br)c1Br (stereo not shown) [I.021]		LogP [1]: 2.41^[a]
Cc1c(C(=O)NC2CCCNC2=O)sc(Br)c1Br (stereo not shown) [I.022]		LogP [1]: 2.10^[a]
Cc1c(C(=O)NCC(=O)NC2(C(=O)O)CC2)sc(Br)c1Br [I.025]	1.95^[a]	
Cc1c(C(=O)NCC#N)sc(Br)c1Br [I.026]	2.59^[a]	
Cc1c(C(=O)NC(C#N)C(C)C)sc(Br)c1Br (stereo not shown) [I.028]	3.64^[a]	
Cc1c(C(=O)NC(C#N)c2ccccc2)sc(Br)c1Br (stereo not shown) [I.029]	3.85^[a]	
Cc1c(C(=O)NC(C#N)Cc2ccccc2)sc(Br)c1Br (stereo not shown) [I.030]	4.01^[a]	
CCOC(=O)C(Cc1c[nH]c2ccccc12)NC(=O)c1sc(Br)c(Br)c1C (stereo not shown) [I.036]	4.15^[a]	
Cc1c(C(=O)NC2CCSC2=O)sc(Cl)c1Cl (stereo not shown) [I.037]		LogP [1]: 2.86^[a]
CCOC(=O)CCNC(=O)c1sc(Cl)c(Cl)c1C [I.038]	3.06^[a]	
CCSC(=O)C(NC(=O)c1sc(Cl)c(Cl)c1C)C(C)C (stereo not shown) [I.042]	4.69^[a]	
COC(=O)[C@H](Cc1ccccc1)NC(=O)[C@H](CC(=O)O)NC(=O)c1sc(Cl)c(Cl)c1C [I.048]		LogP [1]: 3.09^[a]

Compound	LogP (method [a])	also measured
COC(=O)C1(NC(=S)c2sc(Cl)c(Cl)c2C)CC1 [I.050]	3.68^[a]	
Cc1c(C(=O)NC(C(N)=O)C(C)C)sc(Br)c1Br (stereo not shown) [I.051]	2.58^[a]	
COC(=O)[C@H](CC(N)=O)NC(=O)c1sc(Br)c(Br)c1C [I.053]	2.12^[a]	
COC(=O)[C@@H](CC(N)=O)NC(=O)c1sc(Cl)c(Cl)c1C [I.054]	2.05^[a]	
COC(=O)[C@H](CC(N)=O)NC(=O)c1sc(Cl)c(Cl)c1C [I.055]	2.02^[a]	
CCOC(=O)CN(C)C(=O)c1sc(Cl)c(Cl)c1C [I.057]	3.15^[a]	
CCOC(=O)C(C(C)C)N(C)C(=O)c1sc(Cl)c(Cl)c1C (stereo not shown) [I.059]	4.44^[a]	
CON(C)C(=O)C(NC(=O)c1sc(Br)c(Br)c1C)C(C)C (stereo not shown) [I.061]	3.71^[a]	
Cc1c(C(=O)NC2(C(N)=O)CC2)sc(Cl)c1Cl [I.063]	1.96^[a]	
Cc1c(C(=O)NC2CCNC2=O)sc(Br)c1Br (stereo not shown) [I.064]		LogP [1]: 1.93^[a]
Cc1c(C(=O)NC2CNC(=O)C2)sc(Br)c1Br (stereo not shown) [I.065]		LogP [1]: 1.89^[a]
Cc1c(C(=O)NC2CCNC(=O)C2)sc(Br)c1Br (stereo not shown) [I.066]		LogP [1]: 1.93^[a]
Cc1c(C(=O)NC(CC(N)=O)C(=O)O)sc(Cl)c1Cl (stereo not shown) [I.068]	1.73^[a]	
Cc1c(C(=O)NC(CCC(N)=O)C(=O)O)sc(Cl)c1Cl (stereo not shown) [I.069]	1.70^[a]	
Cc1c(C(=O)NC(CO)C(=O)O)sc(Br)c1Br (stereo not shown) [I.071]	1.92^[a]	
Cc1c(C(=O)NC(CCC(N)=O)C(=O)O)sc(Br)c1Br (stereo not shown) [I.072]	1.77^[a]	
Cc1c(C(=O)NC(Cc2c[nH]c3ccccc23)C(=O)O)sc(Br)c1Br (stereo not shown) [I.073]	3.07^[a]	
COC(=O)C(NC(=O)c1sc(Cl)c(Cl)c1C)C(=O)OC [I.084]	3.01^[a]	
COC(=O)C(NC(=O)c1sc(Cl)c(Cl)c1C)(C1CC1)C1CC1 [I.086]	3.94^[a]	
CCOC(=O)C1(NC(=O)c2sc(Cl)c(Cl)c2C)CN(C(=O)OC(C)(C)C)C1 [I.088]	4.15^[a]	

Compound	LogP (method [a])	also measured
CCOC(=O)C(NC(=O)c1sc(Br)c(Br)c1C)C1CC1 (stereo not shown) [I.089]	3.84^[a]	
CCOC(=O)C1(NC(=O)c2sc(Br)c(Br)c2C)CN(C(=O)OC(C)(C)C)C1 [I.090]	4.23^[a]	
COC(=O)C(NC(=O)c1sc(Br)c(Br)c1C)C(=O)OC [I.091]	3.10^[a]	
CCOC(=O)C(CC1CC1)NC(=O)c1sc(Br)c(Br)c1C (stereo not shown) [I.092]	4.30^[a]	
COC(=O)C(NC(=O)c1sc(Br)c(Br)c1C)(C1CC1)C1CC1 [I.093]	4.01^[a]	
CCOC(=O)CN(OC)C(=O)c1sc(Br)c(Br)c1C [I.097]	3.93^[a]	
CCOC(=O)CN(OC)C(=O)c1sc(Cl)c(Cl)c1C [I.098]	3.87^[a]	
CCOC(=O)CNC(=S)c1sc(Cl)c(Cl)c1C [I.099]	3.92^[a]	
CCOC(=O)C1(NC(=S)c2sc(Br)c(Br)c2C)CC1 [I.100]	4.15^[a]	
Cc1c(C(=S)NC2(C(=O)O)CC2)sc(Br)c1Br [I.102]	2.91^[a]	
COC(=O)[C@H](CCC(=O)O)NC(=O)c1sc(Cl)c(Cl)c1C [I.103]	2.39^[a]	
COC(=O)[C@H](CCC(=O)O)NC(=O)c1sc(Br)c(Br)c1C [I.104]	2.46^[a]	
COC(=O)[C@H](Cc1ccccc1)NC(=O)[C@H](CC(=O)O)NC(=O)c1sc(Br)c(Br)c1C [I.105]		LogP [1]: 3.11^[a]
CCOC(=O)C1(NC(=O)c2sc(Br)c(Br)c2C)CCCC1 [I.106]	4.09^[a]	
Cc1c(C(=O)N[C@H]2CCSC2=O)sc(Cl)c1Cl [I.111]		LogP (method [b]: LC-UV, neutral range, 0.001 molar ammonium acetate solution in water and acetonitrile as eluent): 2.97^[b]
COC(=O)C(C1CC1)N(O)C(=O)c1sc(Cl)c(Cl)c1C (stereo not shown) [I.114]	3.13^[a]	
Cc1c(C(=O)NC(C(=O)NO)C(C)C)sc(Br)c1Br (stereo not shown) [I.115]	2.31^[a]	
COC(=O)CC(NC(=O)c1sc(Cl)c(Cl)c1C)C(=O)OC (stereo not shown) [I.118]	3.00^[a]	
COC(=O)[C@H](CSC(=O)N(C)C)NC(=O)c1sc(Cl)c(Cl)c1C [I.119]	3.35^[a]	

The next lines start with results.

LogP (method [a])	Compound	also measured
2.84^[a]	COC(=O)C1(NC(=O)c2sc(Br)c(Br)c2C)CCOC1 (stereo not shown) [I.004]	
4.74^[a]	CCSC(=O)C(NC(=O)c1sc(Br)c(Br)c1C)C(C)C (stereo not shown) [I.008]	
4.10^[a]	Cc1c(C(=O)NCC(=O)Sc2ccccc2)sc(Br)c1Br [I.011]	
3.07^[a]	COC(=O)CC1(NC(=O)c2sc(Br)c(Br)c2C)CC1 [I.012]	
3.99^[a]	CCOC(=O)C(CC(F)(F)F)NC(=O)c1sc(Br)c(Br)c1C (stereo not shown) [I.018]	
2.50^[a]	Cc1c(C(=O)NCC2(C(=O)O)CC2)sc(Br)c1Br [I.019]	
2.80^[a]	Cc1c(C(=O)NC2(C#N)CC2)sc(Br)c1Br [I.027]	
5.00^[a]	CCSC(=O)C(CC(C)C)NC(=O)c1sc(Cl)c(Cl)c1C (stereo not shown) [I.041]	
2.06^[a]	COC(=O)[C@H](CCC(N)=O)NC(=O)c1sc(Cl)c(Cl)c1C [I.046]	
2.12^[a]	COC(=O)[C@@H](CC(N)=O)NC(=O)c1sc(Br)c(Br)c1C [I.052]	
4.51^[a]	CCOC(=O)C(C(C)C)N(C)C(=O)c1sc(Br)c(Br)c1C (stereo not shown) [I.058]	
1.75^[a]	Cc1c(C(=O)NCC(N)=O)sc(Cl)c1Cl [I.062]	
1.84^[a]	Cc1c(C(=O)NC(CO)C(=O)O)sc(Cl)c1Cl (stereo not shown) [I.067]	
2.92^[a]	Cc1c(C(=O)NC(C(=O)NCC#N)C(C)C)sc(Br)c1Br (stereo not shown) [I.075]	
2.98^[a]	COC(=O)CC1(NC(=O)c2sc(Cl)c(Cl)c2C)CC1 [I.082]	
4.23^[a]	CCOC(=O)C(CC1CC1)NC(=O)c1sc(Cl)c(Cl)c1C (stereo not shown) [I.085]	
3.81^[a]	CCOC(=O)C(NC(=O)c1sc(Cl)c(Cl)c1C)C(=O)OCC [I.087]	
3.87^[a]	CCOC(=O)C(NC(=O)c1sc(Br)c(Br)c1C)C(=O)OCC [I.094]	
2.67^[a]	Cc1c(C(=O)NC(C(=O)NC(C(=O)O)C2CC2)C2CC2)sc(Cl)c1Cl (stereo not shown) [I.096]	
2.82^[a]	COC(=O)C1(NC(=O)c2sc(Br)c(Br)c2C)CCOCC1 [I.107]	
3.14^[a]	COC(=O)CC(C)NC(=O)c1sc(Br)c(Br)c1C (stereo not shown) [I.109]	
1.92^[a]	CNC(=O)CNC(=O)c1sc(Cl)c(Cl)c1C [I.110]	
4.80^[a]	CCOC(=O)C(NC(=O)c1sc(Br)c(Br)c1C)(OCC)C(C)C (stereo not shown) [I.112]	
3.60^[a]	COC(=O)CNC(=S)c1sc(Cl)c(Cl)c1C [I.113]	
2.95^[a]	CCOC(=O)CN(O)C(=O)c1sc(Cl)c(Cl)c1C [I.116]	
3.59^[a]	COC(=O)C(CCSC(C)=O)NC(=O)c1sc(Cl)c(Cl)c1C (stereo not shown) [I.117]	
